Measured values taken from ChEMBL document CHEMBL2417463, “Synthesis and identification of new flavonoids targeting liver X receptor β involved pathway as potential facilitators of Aβ clearance with reduced lipid accumulation” (J Med Chem, 2013).
Activity calls are given as the source filed them. The calls are words filed in the database; no cut-off is given here.

Key:
HepG2 [1] = experiment: Cytotoxicity against human HepG2 cells assessed as inhibition of cell viability at 50 uM after 48 hrs by SRB assay relative to vehicle-treated control; format: cell-based; details: hepg2, 48 h, 50 µM
[2] = biological target: T1, Oxysterols receptor LXR-beta (Mus musculus) (UniProt Q60644); experiment: Agonist activity at LXRbeta in mouse BV2 cells assessed as upregulation of ABCA1 protein expression after 12 to 48 hrs by Western blot analysis; format: cell-based; details: BV-2
T1 sequence (whole entry): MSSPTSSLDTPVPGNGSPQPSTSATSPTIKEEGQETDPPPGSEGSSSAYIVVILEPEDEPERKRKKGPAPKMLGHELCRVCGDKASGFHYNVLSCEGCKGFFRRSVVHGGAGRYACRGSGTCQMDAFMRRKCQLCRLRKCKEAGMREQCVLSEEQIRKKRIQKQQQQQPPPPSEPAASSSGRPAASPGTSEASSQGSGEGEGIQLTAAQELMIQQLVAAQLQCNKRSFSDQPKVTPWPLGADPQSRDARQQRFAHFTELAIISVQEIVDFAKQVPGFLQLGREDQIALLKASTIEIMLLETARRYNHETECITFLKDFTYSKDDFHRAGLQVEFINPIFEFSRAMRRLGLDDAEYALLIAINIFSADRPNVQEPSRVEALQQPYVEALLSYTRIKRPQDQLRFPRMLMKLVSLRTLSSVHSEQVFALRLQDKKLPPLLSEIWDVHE

[3] = biological target: T1, Oxysterols receptor LXR-beta (Mus musculus); experiment: Agonist activity at LXRbeta in mouse BV2 cells assessed as degradation of intracellular soluble amyloid beta42 at 1 uM preincubated for 18 hrs followed by soluble amyloid beta42 addition measured after 24 hrs by ELISA relative to vehicle-treated control; format: cell-based; details: BV-2
RAW264.7 = experiment: Cytotoxicity against mouse RAW264.7 cells assessed as inhibition of cell viability at 50 uM after 48 hrs by SRB assay relative to vehicle-treated control; format: cell-based; details: raw264.7, 48 h
Mus musculus [4] = experiment: (§1) Antialzheimer activity in double transgenic B6C3 mouse overexpressing APP swedish mutant and PSEN1dE9 assessed as reduction of amyloid beta42 plaque number in hippocampus at 10 mg/kg, ip administered 3 times per week measured after 6 weeks by OC staining-based fluorescence microscopic analysis relative to vehicle-treated control; format: functional; design: scale not given: the % may be the effect or the level left; details: route intraperitoneal
[5] = biological target: T1, Oxysterols receptor LXR-beta (Mus musculus); experiment: Agonist activity at LXRbeta in mouse RAW264.7 cells assessed as induction of ABCA1 promoter activation after 24 hrs by Dual-Glo luciferase reporter gene assay; format: cell-based
[6] = biological target: T1, Oxysterols receptor LXR-beta (Mus musculus); experiment: Agonist activity at LXRbeta in mouse BV2 cells assessed as upregulation of apoE protein expression at 10 uM after 48 hrs by Western blot analysis relative to vehicle-treated control; format: cell-based; details: BV-2
HepG2 [7] = experiment: Induction of intracellular triglyceride accumulation in human HepG2 cells at 1 uM after 4 days relative to vehicle-treated control; format: cell-based; details: hepg2, 96 h
[8] = biological target: T2, Oxysterols receptor LXR-alpha (Homo sapiens) (UniProt Q13133); experiment: Agonist activity at human LXRalpha transfected in HEK293 cells at 1 uM after 24 hrs by luciferase reporter gene assay relative to vehicle-treated control; format: cell-based
T2 sequence (whole entry): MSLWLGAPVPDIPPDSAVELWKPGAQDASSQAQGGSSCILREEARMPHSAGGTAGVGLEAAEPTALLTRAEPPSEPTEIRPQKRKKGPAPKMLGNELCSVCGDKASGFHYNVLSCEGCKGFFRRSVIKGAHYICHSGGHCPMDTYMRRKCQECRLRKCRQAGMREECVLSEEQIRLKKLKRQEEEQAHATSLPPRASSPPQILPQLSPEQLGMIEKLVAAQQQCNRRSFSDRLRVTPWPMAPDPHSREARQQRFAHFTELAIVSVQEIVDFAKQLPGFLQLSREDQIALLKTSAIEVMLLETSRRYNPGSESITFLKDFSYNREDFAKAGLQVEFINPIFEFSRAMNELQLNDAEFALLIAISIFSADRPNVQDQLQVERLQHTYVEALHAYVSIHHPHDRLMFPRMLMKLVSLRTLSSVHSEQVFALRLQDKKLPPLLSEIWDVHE

[9] = biological target: T3, Oxysterols receptor LXR-beta (Homo sapiens) (UniProt P55055); experiment: Agonist activity at human LXRbeta transfected in HEK293 cells at 1 uM after 24 hrs by luciferase reporter gene assay relative to vehicle-treated control; format: cell-based
T3 sequence (whole entry): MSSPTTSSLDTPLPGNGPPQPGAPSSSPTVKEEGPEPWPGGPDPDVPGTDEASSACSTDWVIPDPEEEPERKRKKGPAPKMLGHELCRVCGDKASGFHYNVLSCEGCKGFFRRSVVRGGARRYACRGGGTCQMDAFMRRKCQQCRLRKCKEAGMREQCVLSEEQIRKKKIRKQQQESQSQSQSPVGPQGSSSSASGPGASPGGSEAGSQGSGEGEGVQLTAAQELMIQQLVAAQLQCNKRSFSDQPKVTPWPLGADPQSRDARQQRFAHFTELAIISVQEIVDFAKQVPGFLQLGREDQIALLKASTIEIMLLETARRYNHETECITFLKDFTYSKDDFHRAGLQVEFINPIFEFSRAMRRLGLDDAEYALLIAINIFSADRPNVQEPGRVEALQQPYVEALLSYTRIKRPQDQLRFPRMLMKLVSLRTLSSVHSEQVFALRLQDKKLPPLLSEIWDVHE

[10] = biological target: T1, Oxysterols receptor LXR-beta (Mus musculus); experiment: Agonist activity at LXRbeta in mouse BV2 cells assessed as upregulation of ABCA1 protein expression at 1 uM after 12 to 48 hrs by Western blot analysis; format: cell-based; details: BV-2
Mus musculus [11] = experiment: as §1, with “brain” for “hippocampus”, “thioflavin S” for “OC”; format: functional, organism-based; design: dose 10 mg/kg
Mus musculus [12] = experiment: Antialzheimer activity in double transgenic B6C3 mouse overexpressing APP swedish mutant and PSEN1dE9 assessed as reduction of soluble amyloid beta42 level at 10 mg/kg, ip administered 3 times per week measured after 6 weeks by ELISA relative to vehicle-treated control; format: functional; design: scale not given: the % may be the effect or the level left; details: route intraperitoneal
Mus musculus [13] = experiment: as §1, with “cortex” for “hippocampus”; format: functional; design: scale not given: the % may be the effect or the level left; details: route intraperitoneal
HepG2 [14] = experiment: Induction of intracellular triglyceride accumulation in human HepG2 cells at 10 uM after 4 days relative to vehicle-treated control; format: cell-based; details: hepg2, 96 h
[15] = biological target: T1, Oxysterols receptor LXR-beta (Mus musculus); experiment: Agonist activity at LXRbeta in mouse RAW264.7 cells assessed as upregulation of ABCA1 protein expression after 18 to 48 hrs by Western blot analysis; format: cell-based
[16] = biological target: T1, Oxysterols receptor LXR-beta (Mus musculus); experiment: Agonist activity at LXRbeta in mouse BV2 cells assessed as degradation of intracellular soluble amyloid beta42 at 0.1 uM preincubated for 18 hrs followed by soluble amyloid beta42 addition measured after 24 hrs by ELISA relative to vehicle-treated control; format: cell-based; details: BV-2
Mus musculus [17] = experiment: as §1, with “beta” for “beta42”, “load” for “number”, “brain” for “hippocampus”, “thioflavin S” for “OC”; format: functional, organism-based; design: dose 10 mg/kg
[18] = biological target: T1, Oxysterols receptor LXR-beta (Mus musculus); experiment: Agonist activity at LXRbeta in mouse BV2 cells assessed as degradation of intracellular soluble amyloid beta42 at 0.01 uM preincubated for 18 hrs followed by soluble amyloid beta42 addition measured after 24 hrs by ELISA relative to vehicle-treated control; format: cell-based; details: BV-2

## Cc1ccc(/C=C/C(=O)c2ccc(N)cc2O)o1
HepG2 [1]
  Activity: Non-toxic
[2]
  Activity: Dose-dependent effect
[3]
  Activity: 59%
RAW264.7
  Activity: Non-toxic
Mus musculus [4]
  Activity: 20%
[5]
  Activity: Dose-dependent effect
[6]
  fold change (FC): 2.7
HepG2 [7]
  Activity: -0.3%
[8]
  fold change (FC): 1.19
[9]
  fold change (FC): 1.79
[10]
  Activity: Active
Mus musculus [11]
  Activity: Active
Mus musculus [12]
  Activity: 31%
Mus musculus [13]
  Activity: 30%
HepG2 [14]
  Activity: -0.3%
[15]
  Activity: Dose-dependent effect
[16]
  Activity: 52%
Mus musculus [17]
  Activity: Active
[18]
  Activity: 29%
